Drawing on ChEMBL document CHEMBL3758130, “Effect of Chicoric Acid on Mast Cell-Mediated Allergic Inflammation in Vitro and in Vivo” (J Nat Prod, 2015), this text covers Activity and inhibition for one compound.

Calls of active or inactive are those of the source. The calls are words filed in the database; no cut-off is given here.

Data set [1] concerns HMC1. Description: Antiinflammatory activity in HMC1 cells assessed as suppression of PMACI-induced TNF-alpha mRNA expression pretreated for 30 mins followed by addition of PMACI incubated for 6 hrs by qRT-PCR analysis. The conditions noted are these: Homo sapiens.
Data set [2] deals with Mus musculus. Description: Antiinflammatory activity in ICR male mouse assessed as reduction in compound 48/80-induced mortality rate at 20 mg/kg, ip dosed 1 hr prior to anaphylactic shock measured for 1 hr.
Data set [3] addresses T1, NF-kappa-B inhibitor alpha (Homo sapiens) (UniProt P25963).
T1 sequence (whole entry): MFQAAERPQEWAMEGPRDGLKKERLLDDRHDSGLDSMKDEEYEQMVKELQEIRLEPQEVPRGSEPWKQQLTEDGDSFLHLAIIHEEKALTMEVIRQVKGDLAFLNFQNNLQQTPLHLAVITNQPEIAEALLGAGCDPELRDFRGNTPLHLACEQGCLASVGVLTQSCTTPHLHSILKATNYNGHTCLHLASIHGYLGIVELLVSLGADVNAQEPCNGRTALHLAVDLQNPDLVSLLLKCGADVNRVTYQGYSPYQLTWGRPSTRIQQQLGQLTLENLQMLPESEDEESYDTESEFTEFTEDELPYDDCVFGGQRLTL
Description: Inhibition of PMACI-induced degradation of IkappaB-alpha in HMC1 cells at 12.5 to 50 uM pretreated for 30 mins followed by addition of PMACI incubated for 15 mins by Western blot analysis.

The nature of data set [4]: Effect on p38 level in HMC1 cells at 12.5 to 50 uM pretreated for 30 mins followed by addition of PMACI incubated for 15 mins by Western blot analysis. The format is ADME, cell-based. The conditions noted are these: human, hmc1, 0.25 h.
The target of data set [5] is T1, NF-kappa-B inhibitor alpha (Homo sapiens). Description: Inhibition of PMACI-induced phosphorylation of IkappaB-alpha in HMC1 cells at 12.5 to 50 uM pretreated for 30 mins followed by addition of PMACI incubated for 15 mins by Western blot analysis. In general terms: In western blotting, separated proteins are transferred to a membrane and probed.
Data set [6] relates to Mus musculus. The data set is described as follows: Antiinflammatory activity in ICR male mouse assessed as reduction in compound 48/80-induced serum histamine level at 20 mg/kg, ip dosed 1 hr prior to anaphylactic shock by enzymeimmunoassay.
Data set [7] can be described thus: Effect on IKKalpha/beta level in HMC1 cells at 12.5 to 50 uM pretreated for 30 mins followed by addition of PMACI incubated for 15 mins by Western blot analysis. The class given is ADME, cell-based. Conditions: human, hmc1, 0.25 h.
The nature of data set [8]: Effect on ERK level in HMC1 cells at 12.5 to 50 uM pretreated for 30 mins followed by addition of PMACI incubated for 15 mins by Western blot analysis. The class given is cell-based. Conditions: human, hmc1, 0.25 h.
Data set [9] concerns the target MAP kinase p38 (Homo sapiens) (UniProt O15264+Q15759+Q16539+P53778). The data set is described as follows: Inhibition of PMACI-induced phosphorylation of p38 in HMC1 cells at 12.5 to 50 uM pretreated for 30 mins followed by addition of PMACI incubated for 15 mins by Western blot analysis.
Data set [10] has as its system HMC1. The data set is described as follows: Antiinflammatory activity in HMC1 cells assessed as suppression of pro-caspase-1 degradation pretreated for 30 mins followed by addition of PMACI incubated for 15 mins by Western blot analysis. Conditions: Homo sapiens.
A short description of data set [11]: Effect on JNK level in HMC1 cells at 12.5 to 50 uM pretreated for 30 mins followed by addition of PMACI incubated for 15 mins by Western blot analysis. The format is cell-based. Conditions: human, hmc1, 0.25 h.
Data set [12] relates to HMC1. Description: Antiinflammatory activity in HMC1 cells assessed as suppression of PMACI-induced IL-1beta mRNA expression pretreated for 30 mins followed by addition of PMACI incubated for 6 hrs by qRT-PCR analysis. The conditions noted are these: Homo sapiens. (In general: Real-time PCR tracks product formation cycle by cycle.)
Data set [13] can be described thus: Cytotoxicity against HMC1 cells at 6.25 to 50 uM after 24 hrs by MTT assay. The class given is cell-based. Conditions: human, hmc1, 24 h. A general note: Tetrazolium assays rely on reduction of a dye to a coloured formazan, in cell work by metabolically active cells.
Data set [14] concerns HMC1. Description: Antiinflammatory activity in HMC1 cells assessed as suppression of PMACI-induced IL-6 mRNA expression pretreated for 30 mins followed by addition of PMACI incubated for 6 hrs by qRT-PCR analysis. Conditions: Homo sapiens.
The nature of data set [15]: Effect on Akt level in HMC1 cells at 12.5 to 50 uM pretreated for 30 mins followed by addition of PMACI incubated for 5 mins by Western blot analysis. The format is ADME, cell-based. Conditions: human, hmc1, 5 min.
Data set [16] deals with HMC1. The data set is described as follows: Antiinflammatory activity in HMC1 cells assessed as suppression of PMACI-induced TNF-alpha production pretreated for 30 mins followed by addition of PMACI incubated for 24 hrs by enzyme immunoassay. Conditions: Homo sapiens.
Data set [17] has as its system HMC1. Description: Inhibition of PMACI-induced phosphorylation of ERK in HMC1 cells at 12.5 to 50 uM pretreated for 30 mins followed by addition of PMACI incubated for 15 mins by Western blot analysis. Conditions: Homo sapiens.
Data set [18] addresses c-Jun N-terminal kinase, JNK (Homo sapiens) (UniProt P45983+P53779+P45984). The data set is described as follows: Inhibition of PMACI-induced phosphorylation of JNK in HMC1 cells at 12.5 to 50 uM pretreated for 30 mins followed by addition of PMACI incubated for 15 mins by Western blot analysis.
The test system of data set [19] is HMC1. The data set is described as follows: Antiinflammatory activity in HMC1 cells assessed as suppression of PMACI-induced IL-1beta production pretreated for 30 mins followed by addition of PMACI incubated for 24 hrs by enzyme immunoassay. Conditions: Homo sapiens.
In data set [20] the test system is HMC1. Description: Antiinflammatory activity in HMC1 cells assessed as suppression of PMACI-induced IL-6 production pretreated for 30 mins followed by addition of PMACI incubated for 24 hrs by enzyme immunoassay. Conditions: Homo sapiens.
Data set [21] has as its target Inhibitor of NF-kappa-B kinase alpha/beta (Homo sapiens) (UniProt O14920+O15111). The data set is described as follows: Inhibition of PMACI-induced phosphorylation of IKKalpha/beta in HMC1 cells at 12.5 to 50 uM pretreated for 30 mins followed by addition of PMACI incubated for 15 mins by Western blot analysis.
For data set [22], the target named is RAC-alpha serine/threonine-protein kinase (Homo sapiens) (UniProt P31749). The data set is described as follows: Inhibition of PMACI-induced phosphorylation of Akt at […] in HMC1 cells at 12.5 to 50 uM pretreated for 30 mins followed by addition of PMACI incubated for 5 mins by Western blot analysis.
RAC-alpha serine/threonine-protein kinase (Homo sapiens), sequence (P31749 whole entry): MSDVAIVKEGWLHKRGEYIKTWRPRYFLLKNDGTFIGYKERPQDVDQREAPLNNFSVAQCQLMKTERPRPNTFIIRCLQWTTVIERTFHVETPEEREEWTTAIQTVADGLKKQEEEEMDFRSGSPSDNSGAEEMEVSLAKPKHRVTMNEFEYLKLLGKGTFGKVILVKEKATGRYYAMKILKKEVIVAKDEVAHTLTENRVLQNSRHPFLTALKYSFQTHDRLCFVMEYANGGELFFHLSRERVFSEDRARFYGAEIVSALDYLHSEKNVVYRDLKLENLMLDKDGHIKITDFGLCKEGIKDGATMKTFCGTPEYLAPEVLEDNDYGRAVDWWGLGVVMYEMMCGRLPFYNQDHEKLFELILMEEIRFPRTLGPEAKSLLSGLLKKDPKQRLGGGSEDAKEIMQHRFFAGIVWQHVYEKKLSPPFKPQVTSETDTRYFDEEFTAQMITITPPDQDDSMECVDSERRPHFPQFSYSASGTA

Regarding `O=C(/C=C/c1ccc(O)c(O)c1)O[C@@H](C(=O)O)[C@@H](OC(=O)/C=C/c1ccc(O)c(O)c1)C(=O)O` [CICHORIC ACID], the Activity result in data set [1] was “Dose-dependent effect”; in [4], “Non-toxic”; in data set [7] it was “Non-toxic”; in [8] it was “Non-toxic”; in data set [11] it was “Non-toxic”; in data set [12] it was “Dose-dependent effect”. The Activity entry is “Non-toxic” in data set [13]; “Dose-dependent effect” in data set [14]; “Non-toxic” in data set [15]; “Dose-dependent effect” in [16]; “Dose-dependent effect” in [19]; “Dose-dependent effect” in data set [20]. The outcome in data set [2], in [6] and in data set [10] was Active. In addition, the inhibition entry in data set [3], in [5], in data set [21] and in data set [22] was “Active” throughout. Moreover, the inhibition entry in data set [9], in data set [17] and in [18] was “inactive” each time.
